Source: US10076491B2, “Vaccine composition” (NITTO DENKO CORPORATION, priority 2013, dated 2018)

Test system: IFN-γ-producing cells (spleen cells)
Assay: Mouse immunization test with cream formulation for transdermal administration, ELISPOT method (IFN-γ)
Format: in vivo
Settings: FIG. 1 / Table 2, combination with Th1 adjuvant imiquimod (IMQ), OVAp
Procedure: Spleen cells (3×10^6 cells/well) and an antigen peptide (100 μM) or an antigen protein (100 μg/mL) together with the culturing medium were placed into a well of an ELISPOT plate on which an anti-mouse IFN-γ antibody had been immobilized. The plate was cultured for 20 hours under the condition of 37° C. and 5% CO2. The number of the spots representing IFN-γ-producing cells (spot number/3×10^6 cells) was evaluated by the ELISPOT method.
Mouse Immunization Test with Cream Formulation for Transdermal Administration
Mouse immunization test was performed with the cream formulations prepared as described above using a model animal for immunological evaluation. The immunity induction level was evaluated by ELISPOT method. Specifically, the hair of the back of the mouse was cut, and the mouse was kept until it recovered from the skin damage due to the hair cutting. After that, 4 mg of each cream formulation was applied to the skin of the back of the mouse for 24 hours, and then removed. After 6 days, the level of the cellular immunity induction specific for the antigen was evaluated. Six days after the administration, the spleen of the mouse was removed to prepare a suspension of spleen cells. […] The number of the spot representing IFN-γ producing cells (spot number/3×10^6 cells) was evaluated by ELISPOT method.

Question: Which “effect of combination of Th2 cell differentiation inhibitor and Th1 adjuvant (ELISPOT)” value does the source give for COc1ccc2cc3[n+](cc2c1OC)CCc1cc2c(cc1-3)OCO2 [berberine] here?
Answer: synergistic effect

Question: For CC(C(=O)O)c1ccc(CC2CCCC2=O)cc1 (centres unmarked) [loxoprofen], which “effect of combination of Th2 cell differentiation inhibitor and Th1 adjuvant (ELISPOT)” value is on record?
Answer: synergistic effect
